Source: article PMC12606464, “Investigating NFE2L1 activators for targeted protein aggregate clearance: a follow-up study” (RSC Medicinal Chemistry, 2025)

System: HCT116 cells expressing EGFP-HttQ74
Assay: PolyQ toxicity assay (EGFP-HttQ74, alamarBlue) in HCT116 WT and DDI2 KO cells
Type: cell-based, human
Conditions: 48 h
Experimental: Fig. 3 (A) HEK293 cells were treated with RUN compounds at a concentration of 7.5 μM for 16 hours. DMSO was used as a vehicle control. Proteasome chymotrypsin-like activity was measured in cell lysates at 37 °C. Data came from three biological replicates (n = 3). Statistical analysis was done using ratio paired t-tests corrected for multiple comparisons with Holm–Šídák's method (α = 0.05). *p < 0.05. Detailed results of the analysis are shown in SI Table S7. […] HCT116 parental cells (WT) and two independent DDI2 knockout clones (KO 04 and KO 11), in which NFE2L1 activation is impaired, were transiently transfected with plasmids encoding non-aggregating EGFP-HttQ23 or aggregation-prone EGFP-HttQ74. Cells were treated with 1 or 3 μM RUN-89 for 48 hours, and viability was measured using the alamarBlue assay. […] Data are shown as the Geomean ± GeoSD from four independent biological replicates (n = 4). Statistical analysis was performed on log2-transformed values using two-way repeated-measures ANOVA followed by Šídak's multiple comparison test. (C right) Parental SH-SY5Y cells (without α-synuclein expression) were treated in the same manner. (C left) The protective effect of RUN compounds was assessed by rotenone-induced α-synuclein proteotoxicity in SH-SY5Y cells, which mimics the PD-like phenotype. Cells were pre-treated with increasing concentrations of RUN compounds (0.312, 0.625, 1.25, and 2.5 μM) for 4 hours and then rotenone (1.125 μM) treatment was done for 24 hours.
To further evaluate the protective capacity of RUN-89 in a polyQ aggregation model, we transiently transfected HCT116 parental cells (wt) and DDI2 knockout clones (KO4 and KO11) with plasmids encoding either a non-aggregating EGFP-HttQ23 or an aggregation-prone EGFP-HttQ74 construct. This model is widely used to study Huntington's disease (HD), a prototypical polyglutamine expansion disorder caused by expanded CAG repeats in the huntingtin gene.[67–69] […] Cells were treated with increasing concentrations of RUN-89 (1 and 3 μM) for 48 h, and viability was assessed using the alamarBlue assay (Fig. 3B). […]

In the case of `COc1ccc(/C=C2\CC(NC(=O)C3CCCC3)C/C(=C\c3ccc(OC)c(OC)c3)C2=O)cc1OC` (centres unmarked) [RUN-89], the “Protective effect in DDI2-deficient clones expressing HttQ74” value (1 and 3 μM) is reported as “strongly reduced”, the “Survival of wild-type cells expressing HttQ74” value (1 and 3 μM) is reported as “significantly improved survival” and the “Viability of EGFP-HttQ74 cells (mean), KO 04, 1 μM” value (HCT116 DDI2-/- KO 04, 1 μM, alamarBlue) is reported as 41.44. For the same compound, the “Viability of EGFP-HttQ74 cells (mean), KO 04, 3 μM” value (HCT116 DDI2-/- KO 04, 3 μM, alamarBlue) was 16.49, the “Viability of EGFP-HttQ74 cells (mean), KO 11, 1 μM” value (HCT116 DDI2-/- KO 11, 1 μM, alamarBlue) was 59.5 and the “Viability of EGFP-HttQ74 cells (mean), KO 11, 3 μM” value (HCT116 DDI2-/- KO 11, 3 μM, alamarBlue) was 37.35. The “Viability of EGFP-HttQ74 cells (mean), WT, 1 μM” value (HCT116 WT, 1 μM, alamarBlue) was 72.36 and the “Viability of EGFP-HttQ74 cells (mean), WT, 3 μM” value (HCT116 WT, 3 μM, alamarBlue) was 79.66.
